Data reported in patent publication US6849722B2, “Polymerized oligopeptide-surfactant chiral micelles” (Board of Supervisors of Louisiana State University and …, priority 1998, dated 2005).

How the values were obtained:
[1] = cited from earlier work
[2] = Effective electrophoretic mobility by capillary zone electrophoresis/indirect photometric detection; format: physicochemical; settings: 100 mM boric acid and 5 mM Na2B4O7, pH 8.0; NMS light-absorbing electrolyte
[3] = Critical micelle concentration by surface tension measurement; format: physicochemical; settings: in pure water
Protocol: Table 1 compares the structural features and physicochemical properties of L-SUV and L-SUVV. The critical micelle concentration (“CMC”) for both chiral surfactants was measured by following a linear decrease in surface tension as surfactant concentration increased, up to a point. After this point, no appreciable change in surface tension was observed. The point of intersection of the two lines (the linear decrease and the flat line thereafter) was taken as the CMC of the surfactants. The greater hydrophobicity of L-SUVV compared to L-SUV gave the former a lower CMC. In addition, an increase in the molecular weight decreased the mobility of L-SUVV toward the injector end. Thus, L-SUVV eluted faster than L-SUV, as it was carried more rapidly by bulk electroosmotic flow (EOF) towards the detection window.
All surfactants in this study were synthesized according to the procedure of Wang, J.; Warner, I. M. Anal. Chem. 1994, 66, 3773-3776. […] The critical micelle concentrations of the surfactants were determined by surface tension measurements as previously described. […] These numbers were calculated from average molecular weights as determined by ultracentrifugation. All monomers and polymers used in this study were 99% pure or better, as determined from elemental analysis.

| Substance | pKa [1] | effective electrophoretic mobility (μep) [2] | critical micelle concentration (CMC) [3] [mM] |
| --- | --- | --- | --- |
| tris (hydroxymethyl)aminomethane | around 8 |  |  |
| sodium N-undecylenyl-L-valine-L-valine [L-U-Val-Val] |  | −1.2 × 10^−4 cm^−2 V^−1 s^−1 | 10 |
